Usually IC50 stands for the point on the concentration scale where inhibition reaches its midpoint.

Assay [1] has as its target Monoacylglycerol lipase ABHD6 (Mus musculus) (UniProt Q8R2Y0). The assay can be described thus: in situ PREP and ABHD6 off-target inhibition, dose response, selectivity assay for PME-1 inhibitor project, cell-based, fluorescence, gel-based ABPP (AID 588835). As to conditions: in situ gel-based competitive ABPP.
Assay [2] concerns the target Prolyl endopeptidase (Mus musculus) (UniProt Q9QUR6). The assay is described as above. As to conditions: in situ gel-based competitive ABPP, PREP, IC50, second panel column.

The structures appear in SMILES notation. The source made the active and inactive calls. How the calls were made is not given here.

Monoacylglycerol lipase ABHD6 (Mus musculus), sequence (Q8R2Y0 whole entry, looked up): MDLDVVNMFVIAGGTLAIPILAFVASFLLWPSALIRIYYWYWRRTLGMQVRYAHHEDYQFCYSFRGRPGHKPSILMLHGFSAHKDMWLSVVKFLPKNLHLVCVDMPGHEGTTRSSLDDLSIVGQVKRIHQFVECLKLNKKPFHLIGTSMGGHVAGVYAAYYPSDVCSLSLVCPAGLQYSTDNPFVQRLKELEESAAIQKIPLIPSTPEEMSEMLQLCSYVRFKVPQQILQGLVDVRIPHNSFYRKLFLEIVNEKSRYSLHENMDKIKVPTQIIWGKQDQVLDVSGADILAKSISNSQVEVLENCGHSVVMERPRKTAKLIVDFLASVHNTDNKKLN
Prolyl endopeptidase (Mus musculus), sequence (Q9QUR6 whole entry, looked up): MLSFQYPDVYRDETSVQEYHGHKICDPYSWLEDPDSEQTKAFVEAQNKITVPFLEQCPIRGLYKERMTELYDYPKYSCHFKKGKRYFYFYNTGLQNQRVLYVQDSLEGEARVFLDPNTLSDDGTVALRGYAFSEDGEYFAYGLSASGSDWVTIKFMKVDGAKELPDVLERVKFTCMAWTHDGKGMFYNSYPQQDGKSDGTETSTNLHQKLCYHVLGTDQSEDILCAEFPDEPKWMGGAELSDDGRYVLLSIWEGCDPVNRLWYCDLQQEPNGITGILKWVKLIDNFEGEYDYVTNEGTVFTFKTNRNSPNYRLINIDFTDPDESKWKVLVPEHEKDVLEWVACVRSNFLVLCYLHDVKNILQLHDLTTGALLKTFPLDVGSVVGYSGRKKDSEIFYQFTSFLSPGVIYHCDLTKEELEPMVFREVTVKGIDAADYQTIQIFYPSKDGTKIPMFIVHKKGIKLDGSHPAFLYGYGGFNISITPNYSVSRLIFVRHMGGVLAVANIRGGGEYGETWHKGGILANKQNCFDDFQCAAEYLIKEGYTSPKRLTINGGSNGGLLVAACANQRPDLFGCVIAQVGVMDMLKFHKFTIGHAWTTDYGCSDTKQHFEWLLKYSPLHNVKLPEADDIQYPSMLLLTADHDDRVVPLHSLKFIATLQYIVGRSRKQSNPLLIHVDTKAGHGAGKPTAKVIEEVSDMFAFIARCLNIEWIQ

Take `CC[C@@]1(c2ccc(C)cc2)C(=O)N(C(=O)OC(C)C)N1C(=O)OC(C)C`: the IC50 entry in assay [1] is “inactive”. Moreover, the IC50 in assay [2] was 2340 nM.

The values are drawn from PubChem BioAssay AID588835 (The Scripps Research Institute Molecular Screening Center, 2011).
